System: K24384-001-R-PDC complex spheroids, viability
Assay: Anticancer human tumor K24384-001-R-PDC patient-derived pancreatic adenocarcinoma cell line growth inhibition [GQUAD]
Conditions: for IC50: curve of first compound; for viability, T/C: stronger effect = lower value
Method in brief: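 Viability of tumor cells grown as complex spheroids with endothelial and stromal cells, exposed to drug combinations. Top concentration at or near clinical Cmax (else 10 microM), diluted in half-log increments.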

[1] = second compound 0.0316 µM, first compound 0.0316 µM
[2] = second compound 0.0316 µM, first compound 0.1 µM
[3] = second compound 0.0316 µM, first compound 0.316 µM
[4] = second compound 0.0316 µM, first compound 1 µM
[5] = second compound 0.0316 µM, first compound 3.16 µM
[6] = second compound 0.0316 µM, first compound 10 µM
[7] = second compound 0.1 µM, first compound 0.0316 µM
[8] = second compound 0.1 µM, first compound 0.1 µM
[9] = second compound 0.1 µM, first compound 0.316 µM
[10] = second compound 0.1 µM, first compound 1 µM
[11] = second compound 0.1 µM, first compound 3.16 µM
[12] = second compound 0.1 µM, first compound 10 µM
[13] = second compound 0.316 µM, first compound 0.0316 µM
[14] = second compound 0.316 µM, first compound 0.1 µM
[15] = second compound 0.316 µM, first compound 0.316 µM
[16] = second compound 0.316 µM, first compound 1 µM
[17] = second compound 0.316 µM, first compound 3.16 µM
[18] = second compound 0.316 µM, first compound 10 µM
[19] = second compound 1 µM, first compound 0.0316 µM
[20] = second compound 1 µM, first compound 0.1 µM
[21] = second compound 1 µM, first compound 0.316 µM
[22] = second compound 1 µM, first compound 1 µM
[23] = second compound 1 µM, first compound 3.16 µM
[24] = second compound 1 µM, first compound 10 µM
[25] = second compound 3.16 µM, first compound 0.0316 µM
[26] = second compound 3.16 µM, first compound 0.1 µM
[27] = second compound 3.16 µM, first compound 0.316 µM
[28] = second compound 3.16 µM, first compound 1 µM
[29] = second compound 3.16 µM, first compound 3.16 µM
[30] = second compound 3.16 µM, first compound 10 µM
[31] = second compound 10 µM, first compound 0.0316 µM
[32] = second compound 10 µM, first compound 0.1 µM
[33] = second compound 10 µM, first compound 0.316 µM
[34] = second compound 10 µM, first compound 1 µM
[35] = second compound 10 µM, first compound 3.16 µM
[36] = second compound 10 µM, first compound 10 µM
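Note: spheroids exposed to compounds for seven days.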

Nc1ccn(C2OC(CO)C(O)C2(F)F)c(=O)n1 (stereo not drawn) + Cc1[nH]c2ccc(F)cc2c1-c1nc2c3cccnc3c3ncccc3c2[nH]1
IC50 (second compound 0.0316 µM): 215 nM
IC50 (second compound 0.1 µM): 208 nM
IC50 (second compound 0.316 µM): 318 nM
IC50 (second compound 1 µM): 290 nM
IC50 (second compound 3.16 µM): 240 nM
IC50 (second compound 10 µM): 110 nM
viability, T/C [1]: 87.6%
viability, T/C [2]: 62.5%
viability, T/C [3]: 44.5%
viability, T/C [4]: 30.6%
viability, T/C [5]: 26.2%
viability, T/C [6]: 23.2%
viability, T/C [7]: 75.7%
viability, T/C [8]: 66.4%
viability, T/C [9]: 36.7%
viability, T/C [10]: 35.8%
viability, T/C [11]: 26.4%
viability, T/C [12]: 19.8%
viability, T/C [13]: 71.1%
viability, T/C [14]: 69.5%
viability, T/C [15]: 46.9%
viability, T/C [16]: 34.8%
viability, T/C [17]: 27.9%
viability, T/C [18]: 20.6%
viability, T/C [19]: 81.3%
viability, T/C [20]: 70%
viability, T/C [21]: 42.5%
viability, T/C [22]: 38.8%
viability, T/C [23]: 33.3%
viability, T/C [24]: 22.1%
viability, T/C [25]: 69.4%
viability, T/C [26]: 60.9%
viability, T/C [27]: 41.3%
viability, T/C [28]: 43.2%
viability, T/C [29]: 25.3%
viability, T/C [30]: 19.7%
viability, T/C [31]: 54.9%
viability, T/C [32]: 52.6%
viability, T/C [33]: 39.6%
viability, T/C [34]: 30.7%
viability, T/C [35]: 19.8%
viability, T/C [36]: 15.1%

O=C(c1cc(Cc2n[nH]c(=O)c3ccccc23)ccc1F)N1CCN(C(=O)C2CC2)CC1 + Cc1[nH]c2ccc(F)cc2c1-c1nc2c3cccnc3c3ncccc3c2[nH]1
IC50 (second compound 0.0316 µM): > 10000 nM
IC50 (second compound 0.1 µM): > 10000 nM
IC50 (second compound 0.316 µM): > 10000 nM
IC50 (second compound 1 µM): > 10000 nM
IC50 (second compound 3.16 µM): > 10000 nM
IC50 (second compound 10 µM): > 10000 nM
viability, T/C [1]: 101%
viability, T/C [2]: 94%
viability, T/C [3]: 99.6%
viability, T/C [4]: 94.3%
viability, T/C [5]: 84.4%
viability, T/C [6]: 93.1%
viability, T/C [7]: 103%
viability, T/C [8]: 104%
viability, T/C [9]: 147%
viability, T/C [10]: 98.7%
viability, T/C [11]: 89.8%
viability, T/C [12]: 83.9%
viability, T/C [13]: 96.8%
viability, T/C [14]: 97.4%
viability, T/C [15]: 95.7%
viability, T/C [16]: 85.7%
viability, T/C [17]: 82.3%
viability, T/C [18]: 91.1%
viability, T/C [19]: 78.1%
viability, T/C [20]: 88%
viability, T/C [21]: 90.5%
viability, T/C [22]: 87.5%
viability, T/C [23]: 89%
viability, T/C [24]: 69.7%
viability, T/C [25]: 82.9%
viability, T/C [26]: 78.1%
viability, T/C [27]: 64.3%
viability, T/C [28]: 77.9%
viability, T/C [29]: 82%
viability, T/C [30]: 67.3%
viability, T/C [31]: 69.7%
viability, T/C [32]: 70.7%
viability, T/C [33]: 62.5%
viability, T/C [34]: 69%
viability, T/C [35]: 74.5%
viability, T/C [36]: 56.1%

Nc1ccn(C2OC(CO)C(O)C2(F)F)c(=O)n1 (stereo not drawn) + CN(C)c1ccc(Nc2c3ccc(NC(=O)CCN4CCCC4)cc3nc3cc(NC(=O)CCN4CCCC4)ccc23)cc1
IC50 (second compound 0.0316 µM): 238 nM
IC50 (second compound 0.1 µM): 157 nM
IC50 (second compound 0.316 µM): 152 nM
IC50 (second compound 1 µM): 111 nM
IC50 (second compound 3.16 µM): 144 nM
IC50 (second compound 10 µM): 118 nM
viability, T/C [1]: 73.4%
viability, T/C [2]: 66.5%
viability, T/C [3]: 40.9%
viability, T/C [4]: 35.9%
viability, T/C [5]: 23.1%
viability, T/C [6]: 21.4%
viability, T/C [7]: 78.1%
viability, T/C [8]: 57.2%
viability, T/C [9]: 38.2%
viability, T/C [10]: 30.8%
viability, T/C [11]: 19.8%
viability, T/C [12]: 19.8%
viability, T/C [13]: 68.1%
viability, T/C [14]: 56.6%
viability, T/C [15]: 38.7%
viability, T/C [16]: 30.3%
viability, T/C [17]: 20.6%
viability, T/C [18]: 17.2%
viability, T/C [19]: 71.9%
viability, T/C [20]: 49.9%
viability, T/C [21]: 39.2%
viability, T/C [22]: 24.4%
viability, T/C [23]: 19.9%
viability, T/C [24]: 16.8%
viability, T/C [25]: 76.5%
viability, T/C [26]: 57.6%
viability, T/C [27]: 33.7%
viability, T/C [28]: 23.3%
viability, T/C [29]: 18.6%
viability, T/C [30]: 15.6%
viability, T/C [31]: 63.6%
viability, T/C [32]: 54.1%
viability, T/C [33]: 32.8%
viability, T/C [34]: 27.9%
viability, T/C [35]: 18.3%
viability, T/C [36]: 18.2%

CC1COCCN1c1cc(C2(S(C)(=N)=O)CC2)nc(-c2ccnc3[nH]ccc23)n1 (stereo not drawn) + Cc1[nH]c2ccc(F)cc2c1-c1nc2c3cccnc3c3ncccc3c2[nH]1
IC50 (second compound 0.0316 µM): 1610 nM
IC50 (second compound 0.1 µM): 1710 nM
IC50 (second compound 0.316 µM): 1500 nM
IC50 (second compound 1 µM): 1990 nM
IC50 (second compound 3.16 µM): 2040 nM
IC50 (second compound 10 µM): 1250 nM
viability, T/C [1]: 82.5%
viability, T/C [2]: 94.6%
viability, T/C [3]: 112%
viability, T/C [4]: 64.2%
viability, T/C [5]: 37.2%
viability, T/C [6]: 22.6%
viability, T/C [7]: 87.1%
viability, T/C [8]: 95.7%
viability, T/C [9]: 107%
viability, T/C [10]: 66.6%
viability, T/C [11]: 34.6%
viability, T/C [12]: 27.5%
viability, T/C [13]: 81.6%
viability, T/C [14]: 85.5%
viability, T/C [15]: 101%
viability, T/C [16]: 58.8%
viability, T/C [17]: 38.5%
viability, T/C [18]: 29.2%
viability, T/C [19]: 87.5%
viability, T/C [20]: 84.1%
viability, T/C [21]: 87.1%
viability, T/C [22]: 63.6%
viability, T/C [23]: 41.5%
viability, T/C [24]: 31.6%
viability, T/C [25]: 71.6%
viability, T/C [26]: 72.6%
viability, T/C [27]: 72.9%
viability, T/C [28]: 61%
viability, T/C [29]: 43%
viability, T/C [30]: 26%
viability, T/C [31]: 56.5%
viability, T/C [32]: 64.4%
viability, T/C [33]: 58.5%
viability, T/C [34]: 54.3%
viability, T/C [35]: 32.5%
viability, T/C [36]: 16.5%
